{
  "source": "paper PMC7403315",
  "about": "“Cyclic peptide FXII inhibitor provides safe anticoagulation in a thrombosis model and in artificial lungs” (Nature Communications, 2020)",
  "key": {"[1]": {"assay": "Observation of toxicity or adverse effects in the animal studies", "format": "in vivo, mice, rabbits, pigs", "settings": "all studies with the three species"}, "[2]": {"molecular_target": "activated protein C (APC) (Homo sapiens, UniProt P04070)", "sequence (P04070 212-461 limits assumed)": "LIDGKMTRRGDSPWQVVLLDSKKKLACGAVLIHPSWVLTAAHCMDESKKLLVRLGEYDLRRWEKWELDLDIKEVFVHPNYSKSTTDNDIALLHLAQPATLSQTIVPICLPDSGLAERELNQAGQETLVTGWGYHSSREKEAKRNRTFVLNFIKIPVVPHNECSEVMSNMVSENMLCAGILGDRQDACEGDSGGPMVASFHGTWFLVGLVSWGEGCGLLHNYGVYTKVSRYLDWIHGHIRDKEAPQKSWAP", "sequence (P04070 43-197 limits assumed)": "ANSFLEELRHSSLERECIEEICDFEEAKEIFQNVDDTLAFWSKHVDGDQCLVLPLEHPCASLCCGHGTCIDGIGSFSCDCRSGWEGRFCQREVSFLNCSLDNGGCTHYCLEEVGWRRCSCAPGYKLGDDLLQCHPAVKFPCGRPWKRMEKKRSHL", "assay": "Specificity profiling, residual protease activity (chromogenic substrate)", "format": "biochemical", "protocol": "Protease inhibition assays\nThe inhibitory activity of peptides was determined by measuring the residual protease activity with a fluorogenic substrate. The assay was performed in buffer containing 10 mM Tris-Cl, pH […]\n1% (v/v) DMSO in a volume of 150 µl. […]\nHFXIIAB) were used at final concentrations of 0.4 nM. The reaction was pipetted as follows: 50 µl of bicyclic peptide in assay buffer were added to 50 µl of FXIIa in assay buffer and incubated for 10 minutes at 25°C before 50 µl of 150 µM fluorogenic substrate in assay buffer were added to measure the residual protease activity with an Infinite M200Pro fluorescence plate reader (excitation at 368 nm, emission at 467 nm; Tecan) for a period of 30 minutes with a read every minute at 25°C. The Tecan software i-control (version 1.1) was used for data analysis. Stock solutions of 1 mM bicyclic peptide were prepared by either dissolving the unpurified cyclization reaction with water or by dissolving purified and lyophilized peptide in water. The bicyclic peptides were serially diluted two-fold using assay buffer. Sigmoidal curves were fitted to the data using the following dose response equation (1), wherein x = peptide concentration, y = % protease activity, and p = Hill slope. IC50 values were derived from the fitted curve.\nThe inhibition constants (Ki) were calculated according to the equation of Cheng and Prusoff, Ki = IC50/(1+([S]0/Km), wherein IC50 is the functional strength of the inhibitor, [S]0 is the total substrate concentration, and Km is the Michaelis-Menten constant. […]\nFor testing the specificity of the bicyclic peptides, the following final concentrations of human serine proteases were used: tPA (Molecular Innovations) 7.5 nM, uPA (Molecular Innovations) 1.5 nM, factor XIa (Innovative Research) 6 nM, plasma kallikrein (Innovative Research) 0.25 nM, thrombin (Molecular Innovations) 1 nM, plasmin (Molecular Innovations) 2.5 nM, trypsin (Molecular Innovations) 0.05 nM, factor VIIa (Haematologic Technologies) 50 nM, factor Xa […]\n(Haematologic Technologies) 6 nM, and activated protein C (APC) 5 nM. Two-fold dilutions of the peptide were prepared that ranged from 0.04 to 40 µM. The following fluorogenic substrates were used at a final concentration of 50 µM: Z-Phe-Arg-AMC (Bachem) for plasma kallikrein; Boc-Phe-Ser-Arg-AMC (Bachem) for factor XIa; Z-Gly-Gly-Arg-AMC (Bachem) for tPA, uPA, thrombin, and trypsin; H-D-Val-Leu-Lys-AMC (Bachem) for plasmin; and D-Phe-Pro-Arg-ANSNH-C4H9 (Haematologic Technologies) for FVIIa and FXa. For APC, the chromogenic substrate pyroGlu-Pro-Arg-pNA (S2366) was used at a concentration of 400 µM. […]"}, "[3]": {"assay": "Pharmacokinetic study in rabbits (plasma concentration by LC-MS)", "format": "in vivo, rabbit", "protocol": "The pharmacokinetic properties of FXII900 applied intravenously were determined as follows. Female New Zealand White rabbits (10–20 weeks old) were injected with 3.7 mg kg^−1 FXII900 dissolved in 1 ml PBS, pH 7.4 via the ear vein. […] The concentration of FXII900 in the plasma samples was determined by LC-MS as described below. The pharmacokinetic properties of FXII900 applied subcutaneously were determined as follows. Female New Zealand White rabbits (2.5–2.9 kg) were injected subcutaneously over the shoulders with 3.7 mg kg^−1 of FXII900 dissolved in 1 ml PBS pH 7.4. […] The plasma was stored at −80 °C. The concentration of FXII900 in the plasma samples was determined by LC-MS as described below.\nThe concentration of FXII900 in the plasma samples was quantified based on peak intensities of total ion current (TIC) chromatograms acquired by LC-MS (LCMS-2020, Shimadzu). To 15 μl of plasma sample, 1 μM of internal standard peptide and 5 μl of 6 M guanidinium hydrochloride solution were added and mixed. Plasma proteins were precipitated by the addition of 400 µl of ice cold ethanol (99.9% [v/v] EtOH, 0.1% [v/v] TFA) and incubated on ice for one hour. Precipitate was removed by centrifugation (9000 × g, 20 min, 4 °C) and the supernatant dried by centrifugal evaporation under vacuum. Dried samples were dissolved by sequentially adding 2 μl of DMSO and 18 μl of H2O containing 0.1% (v/v) CHOOH and analyzed by LC-MS. The samples were analyzed using an analytical C18 column (Phenomenex C18 Kinetex column, 50 × 2.1 mm, 2.6 µm, 100 Å) and a linear gradient of 5–30% solvent B (MeCN, 0.05% [v/v] CHOOH) in solvent A (H2O, 0.05% [v/v] CHOOH) in 4.5 min at a flow of 1 ml per min. The mass was measured on a single quadrupole mass spectrometer in positive ion mode using electrospray ionization. Peptides were quantified based on the absolute intensities of the detected mass peaks (M^3+ and M^4+)."}, "[4]": {"settings": "female, New Zealand White, rabbit, plasma, intravenous, 3.7 mg kg-1"}},
  "note": "Values joined by “and” are separate entries in the source; they are usually repeats but may differ in a detail not shown here. Equal entries are not always repeated. Where two headings read alike, the source gives them in different places. Starred links: 1 amine or outer side, 2 acyl side, 3 side chain; linkers in the order of their positions; H or OH if unused. Positions of bridges follow the written chain, without caps; N, C: chain ends. Non-standard residues stand in square brackets, D forms with d. Residues, ends and D or L forms follow the SMILES beside them. TATA = O=C(CC[*:1])N1CN(C(=O)CC[*:2])CN(C(=O)CC[*:3])C1; Phe(4-F) = N[C@@H](Cc1ccc(F)cc1)C(=O)O; β3hR = N=C(N)NCCC[C@H](N)CC(=O)O",
  "data": [
    {"compound": "CC(C)C[C@@H]1NC(=O)[C@H](CCC(N)=O)NC(=O)[C@H](Cc2c[nH]cn2)NC(=O)[C@@H]2CSCCC(=O)N3CN(CN(C3)C(=O)CCSC[C@H](NC(=O)[C@@H](CO)NC(=O)[C@H](N)CCCNC(=N)N)C(=O)N[C@@H](Cc3ccc(F)cc3)C(=O)N[C@@H](CCCNC(=N)N)C(=O)N[C@@H](CC(C)C)C(=O)N3CCC[C@H]3C(=O)N2)C(=O)CCSC[C@@H](C(N)=O)NC(=O)C[C@H](CCCNC(=N)N)NC1=O", "note": "[FXII900] (H-[dR][dS]C[Phe(4-F)]RLPCHQL[β3hR]C-NH2; linker 3-8-13 via TATA)", "values": [
      {"measurement": "signs of toxicity or other adverse effects", "setting": "[1]", "result": "did not observe any signs of toxicity or other adverse effects"},
      {"measurement": "Ki", "setting": "[2]", "result": "> 40", "unit": "µM"},
      {"measurement": "remaining activity at 0.0390625 µM", "setting": "[2]; inhibitor 39.0625 nM", "result": 98.1, "unit": "%"},
      {"measurement": "Residual activity of APC", "setting": "[2]; inhibitor 39.0625 nM, 0.0390625 µM", "result": "97.5009% and 97.9227%"},
      {"measurement": "remaining activity at 0.078125 µM", "setting": "[2]; inhibitor 78.125 nM", "result": 102, "unit": "%"},
      {"measurement": "Residual activity of APC", "setting": "[2]; inhibitor 78.125 nM, 0.078125 µM", "result": "96.3711% and 96.6396%"},
      {"measurement": "remaining activity at 0.15625 µM", "setting": "[2]; inhibitor 156.25 nM", "result": 102, "unit": "%"},
      {"measurement": "Residual activity of APC", "setting": "[2]; inhibitor 156.25 nM, 0.15625 µM", "result": "97.5779% and 99.0137%"},
      {"measurement": "remaining activity at 0.3125 µM", "setting": "[2]; inhibitor 312.5 nM", "result": 102, "unit": "%"},
      {"measurement": "Residual activity of APC", "setting": "[2]; inhibitor 312.5 nM, 0.3125 µM", "result": "99.2982% and 100.044%"},
      {"measurement": "remaining activity at 0.625 µM", "setting": "[2]; inhibitor 625 nM", "result": 103, "unit": "%"},
      {"measurement": "Residual activity of APC", "setting": "[2]; inhibitor 625 nM, 0.625 µM", "result": "98.4851% and 100.174%"},
      {"measurement": "remaining activity at 1.25 µM", "setting": "[2]; inhibitor 1250 nM", "result": 103, "unit": "%"},
      {"measurement": "Residual activity of APC", "setting": "[2]; inhibitor 1250 nM, 1.25 µM", "result": "97.7747% and 100.567%"},
      {"measurement": "remaining activity at […]", "setting": "[2]; inhibitor 2500 nM", "result": 102, "unit": "%"},
      {"measurement": "remaining activity at 5 µM", "setting": "[2]; inhibitor 5000 nM", "result": 101, "unit": "%"},
      {"measurement": "Residual activity of APC", "setting": "[2]; inhibitor 5000 nM, 5 µM", "result": "97.0131% and 99.7294%"},
      {"measurement": "remaining activity at 10 µM", "setting": "[2]; inhibitor 10000 nM", "result": 101, "unit": "%"},
      {"measurement": "Residual activity of APC", "setting": "[2]; inhibitor 10000 nM, 10 µM", "result": "97.8346% and 99.7294%"},
      {"measurement": "remaining activity at 20 µM", "setting": "[2]; inhibitor 20000 nM", "result": 101, "unit": "%"},
      {"measurement": "Residual activity of APC", "setting": "[2]; inhibitor 20000 nM, 20 µM", "result": "96.859% and 99.2406%"},
      {"measurement": "remaining activity at 40 µM", "setting": "[2]; inhibitor 40000 nM (40 µM)", "result": "98.3 ± 2.3", "unit": "%"},
      {"measurement": "Residual activity of APC", "setting": "[2]; inhibitor 40000 nM (40 µM), 40 µM", "result": "100.29% and 95.7977% and 98.8915%"},
      {"measurement": "Vd", "setting": "[3]; [4]", "result": "0.28 ± 0.05", "unit": "L/kg"},
      {"measurement": "clearance", "setting": "[3]; [4]", "result": "16.1 ± 1", "unit": "mL/min/kg"},
      {"measurement": "half-life", "setting": "[3]; female, New Zealand White, rabbit, plasma, intravenous, 3.7 mg kg^−1, read-out: elimination half-life (t1/2 β)", "result": "12 ± 2", "unit": "min"},
      {"measurement": "level at time molar at 2 min", "setting": "[3]; female, New Zealand White, rabbit, plasma, iv, 3.7 mg/kg, intravenous administration, 2 min, individual rabbits and analyses, read-out: Plasma conc.", "result": 5510, "unit": "nM"},
      {"measurement": "level at time molar at 5 min", "setting": "[3]; female, New Zealand White, rabbit, plasma, iv, 3.7 mg/kg, intravenous administration, 5 min, individual rabbits and analyses, read-out: Plasma conc.", "result": 2610, "unit": "nM"},
      {"measurement": "level at time molar at 10 min", "setting": "[3]; female, New Zealand White, rabbit, plasma, iv, 3.7 mg/kg, intravenous administration, 10 min, individual rabbits and analyses, read-out: Plasma conc.", "result": 2250, "unit": "nM"},
      {"measurement": "level at time molar at 20 min", "setting": "[3]; female, New Zealand White, rabbit, plasma, iv, 3.7 mg/kg, intravenous administration, 20 min, individual rabbits and analyses, read-out: Plasma conc.", "result": 1260, "unit": "nM"},
      {"measurement": "level at time molar at 40 min", "setting": "[3]; female, New Zealand White, rabbit, plasma, iv, 3.7 mg/kg, intravenous administration, 40 min, individual rabbits and analyses, read-out: Plasma conc.", "result": 503, "unit": "nM"},
      {"measurement": "level at time molar at 40 min", "setting": "[3]; female, New Zealand White, rabbit, plasma, sc, 3.7 mg/kg, subcutaneous administration, 40 min, individual rabbits and analyses, read-out: Plasma conc.", "result": 254, "unit": "nM"},
      {"measurement": "Plasma conc.", "setting": "[3]; intravenous administration, 5 min, individual rabbits and analyses", "result": 2596, "unit": "nM"},
      {"measurement": "Plasma conc.", "setting": "[3]; intravenous administration, 10 min, individual rabbits and analyses", "result": 2079, "unit": "nM"},
      {"measurement": "Plasma conc.", "setting": "[3]; intravenous administration, 20 min, individual rabbits and analyses", "result": "1683 nM and 1119 nM"},
      {"measurement": "Plasma conc.", "setting": "[3]; intravenous administration, 40 min, individual rabbits and analyses", "result": 313.9, "unit": "nM"},
      {"measurement": "Plasma conc.", "setting": "[3]; subcutaneous administration, 10 min, individual rabbits and analyses", "result": 237.6, "unit": "nM"},
      {"measurement": "Plasma conc.", "setting": "[3]; subcutaneous administration, 160 min, individual rabbits and analyses", "result": -5.09, "unit": "nM"}
    ]}
  ]
}
